# Experiments:
# cataleptic rat = test: reversal of catalepsy in rats; format: in vivo; details: subcutaneous; for ED50: Rattus norvegicus, sc, read-out: ED50 (calculated dose to reverse catalepsy by 50%)
# Method: R represents hydrogen or a hydroxyl protecting group, and their optical isomers and pharmaceutically acceptable salts, in particular 2-({[5-(4-fluorophenyl)-pyridin-3ylmethyl]-amino}-methyl)-chroman-4-ol or an optical isomer or a physiologically acceptable salt or solvate thereof, excert an extraordinary potency in reversing catalepsy. Extrapyramidal motor side effects in e.g. rodents are measured by the ability of a drug to induce catalepsy. Catalepsy is defined as a state where an animal continues to remain in an unnormal (nonphysiological ‘uncomfortable’) posture for a long time (e.g.: M. E. Stanley and S. D. Glick, Neuropharmacology, 1996; 15: 393-394; C. J. E. Niemegeers and P. Janssen, Life Sci., 1979, […]). For example, if a hindpaw of a rat is placed on an elevated level, e.g. a platform elevated 3 cm above ground level, a normal rat immediately withdraws the hindpaw from the platform to the ground level. A cataleptic rat remains in this unnatural posture even for minutes.
# dopamine D4 receptors = dopamine D4 receptors (Homo sapiens, UniProt P21917); details: literature statement; cited from earlier work
# Sequence of dopamine D4 receptors (P21917 whole entry): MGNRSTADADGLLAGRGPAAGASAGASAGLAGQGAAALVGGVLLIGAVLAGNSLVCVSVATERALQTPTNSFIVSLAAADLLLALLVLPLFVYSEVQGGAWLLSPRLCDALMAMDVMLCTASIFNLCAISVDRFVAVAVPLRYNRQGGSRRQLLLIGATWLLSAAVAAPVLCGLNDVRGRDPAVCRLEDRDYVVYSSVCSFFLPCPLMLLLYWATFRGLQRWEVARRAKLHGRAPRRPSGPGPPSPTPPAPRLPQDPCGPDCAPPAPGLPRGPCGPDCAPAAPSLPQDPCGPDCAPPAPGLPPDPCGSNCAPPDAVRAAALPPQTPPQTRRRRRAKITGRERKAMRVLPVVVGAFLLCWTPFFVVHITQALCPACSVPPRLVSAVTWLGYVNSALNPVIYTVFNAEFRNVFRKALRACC
# parkinsonian monkeys = details: literature; cited from earlier work
# Parkinson patients = details: literature; cited from earlier work
# [1] = system: patients with advanced idiopathic Parkinson's disease; test: double-blind study, advanced idiopathic Parkinson's disease with peak-dose dyskinesia; format: in vivo, human; details: add on, 2.5 to 10 mg b.i.d., diary card
# Description: A typical study to investigate the efficacy of the compounds according to the invention for adverse effects in Parkinson's disease is described in the following. 40 patients of either sex with advanced idiopathic Parkinson's disease complicated by “peak-dose” dyskinesia participate in a double-blind study. The main inclusion criteria are Hoehn & Yahr stage ≧2.5 (lit.: Hoehn H. M. et al, Neurology 1967; 17: 427-442), aged 40-75 years, symptom duration of at least 5 years, and a l-dopa treatment duration of at least 3 years. (2R,4R)-2-({[5-(4-fluorophenyl)-pyridin-3ylmethyl]-amino}-methyl)-chroman-4-ol monohydrochloride hemihydrate or placebo is administered as “add on” to the conventional Parkinson treatment, which is maintained unchanged during the whole study. The dose of blinded medication is titrated over a period of 3 weeks in a range from 2.5 to 10 mg b.i.d. Then the medication is kept constant for 3 weeks. Before the start of titration and at the end of the treatment period the patients fill a diary card in 30 min. inervals for 48 hours. The diary card differentiates 5 different states: (1) “on” without dyskinesia, (2) “on” with troublesome dyskinesia, (3) “on” with non-troublesome dyskinesia, (4) “off” time, and (5) time asleep (Hauser R A et al., Clin. Neuropharmacol., 2000, 23, 75-81). The primary outcome variable of the protocol is the change in “on” time with troublesome dyskinesia. […] The other parameters are not changed.
# [2] = system: patients with idiopathic Parkinson's disease; test: double-blind study, idiopathic Parkinson's disease; format: in vivo, human; details: add on, 2.5 to 10 mg b.i.d.
# Description: A typical study to investigate the efficacy of the compounds according to the invention in the treatment of idiopathic Parkinson's disease is described in the following. 180 patients of either sex with idiopathic Parkinson's disease participate in a double-blind study. The main inclusion criteria are Hoehn & Yahr stage ≧2.0 (Hoehn H. M. et al, Neurology 1967; 17: 427442), aged 50-80 years, symptom duration of at least 5 years. (2R,4R)-2-({[5-(4-fluorophenyl)-pyridin-3ylmethyl]-amino}-methyl)-chroman-4-ol monohydrochloride hemihydrate or placebo is administered as “add on” to the conventional Parkinson treatment, which is maintained unchanged during the whole study. The dose of blinded medication is titrated over a period of 4 weeks in a range from 2.5 to 10 mg b.i.d. Then the medication is kept constant for 1 week. Before the start of titration and at the end of the treatment period the patients fill a diary card in 30 min. intervals for 48 hours. The diary card differentiates 5 different states: (1) “on” without dyskinesia, (2) “on” with troublesome dyskinesia, (3) “on” with non-troublesome dyskinesia, (4) “off” time, and (5) time asleep (Hauser R A et al., Clin. Neuropharmacol., 2000, 23, 75-81). […]
# MSA patients = test: study in MSA patients (UPDRS); format: in vivo, human; details: add on, 2,5 to 20 mg b.i.d.
# Method: The study design is similar to that described above for Parkinson's disease. (2R,4R)-2-({[5-(4-fluorophenyl)-pyridin-3ylmethyl]-amino}-methyl)-chroman-4-ol monohydrochloride hemihydrate or placebo is titrated as “add on” to the conventional treatment (dose range 2,5 to 20 mg b.i.d.). After a double-blind dose-finding phase of 3 weeks during which the individual dose is identified for each patient on the basis of tolerability and efficacy, the dose is maintained unchanged for 3 additional weeks. Before the start of titration and at the end of the treatment period a complete UPDRS assessment is performed in each patient (primary outcome measure).
# [3] = system: schizophrenic inpatients on long-term antipsychotic treatment; test: study in tardive dyskinesia (AIMS); format: in vivo, human; details: add on, 2,5 to 20 mg b.i.d., vs placebo period
# Description: Tardive dyskinesia is a common adverse effect of long-term treatment with neuroleptics. A typical study to investigate the efficacy of the compounds according to the invention in tardive dyskinesia is described in the following. 32 schizophrenic (DSM-III-R) inpatients aged 25-60 years on long-term stable antipsychotic treatment (duration of at least 5 years) entered the study. (2R,4R)-2-({[5-(4-fluorophenyl)-pyridin-3ylmethyl]-amino}-methyl)-chroman-4-ol monohydrochloride hemihydrate or placebo is administered as “add on” to the antipsychotic treatment, which is kept constant during the whole study. The dose of blinded medication is titrated over a period of 3 weeks in a range from 2,5 to 20 mg b.i.d. Then the medication is maintained under double-blind conditions for 2 weeks. After a 2-week wash-out period, the test drugs are crossed over. Assessments of tardive dyskinesia by means of the Abnormal Involuntary Movement Scale (AIMS, see above) and of Parkinsonian extrapyramidal side effects (UPDRS, see above) are made pretreatment and posttreatment.
compound,measurement,setting,value
"Cc1ccc2c(c1)C(N1CCN(C)CC1)=Nc1cccnc1N2 [8-methyl-6-(4-methyl-1-piperazineyl)-11 H-pyrido[2,3-b][1,4,]benzodiazepine]",ED50 (calculated dose to reverse catalepsy by 50%),cataleptic rat,3 mg/kg
same,selectivity for the dopamine D4 receptor compared to clozapine,dopamine D4 receptors,much increased selectivity
same,effects in parkinsonian monkeys,parkinsonian monkeys,beneficial effects
O=C1CC2(CCCC2)CC(=O)N1CCCCN1CCN(c2ncccn2)CC1 [buspirone],ED50,cataleptic rat,6 mg/kg
same,anti-dyskinetic effect,Parkinson patients,moderate anti-dyskinetic properties
O=C1c2ccccc2S(=O)(=O)N1CCCCN1CCN(c2ncccn2)CC1 [ipsapirone],ED50,cataleptic rat,10 mg/kg
"(2R,4R)-2-({[5-(4-fluorophenyl)-pyridin-3ylmethyl]-amino}-methyl)-chroman-4-ol monohydrochloride hemihydrate",other diary parameters,[1],not changed
same,“on” time with troublesome dyskinesia,[1],significant reduction
same,“on” time without dyskinesia,[1],significantly increase
same,clinical improvement,[2],significant clinical improvement
same,efficacy to treat tremor,[2],efficacy to treat tremor is shown
same,"UPDRS, Parkinson symptoms",MSA patients,significant clinical improvement of Parkinson symptoms
same,AIMS scores,[3],significantly lower than during placebo period

# Reference: patent US7618988B2, “Use of substituted aminomethyl chromans” (Merck Patentgesellschaft, priority 2001, dated 2009)
